Measured values as given in US20240041878A1, “APELIN RECEPTOR MODULATORS FOR TREATMENT OF A DISORDER OR DISEASE ASSOCIATED WITH BBB PERMEABILITY” (BioAge Labs, Inc., priority 2022, published 2024).

Tests used:
Mouse astrocyte cells = experiment: Astrocyte gene expression (RT-PCR) after reactive astrocyte cocktail (RAC); type: cell-based
Method: Mouse astrocyte cells were seeded on 24-well plates at a low density of approximately 20 k astrocytes per well. To stimulate astrocytes into a reactive state found in aging and neurodegenerative diseases per previous publications (Liddelow et al., 2017; Barbar et al., 2020), a combination of the cytokines TNF-α and IL-1α, and complement factor C1q, were added at 30 ng/mL, 3 ng/mL, and 400 ng/mL, respectively, into astrocyte culture media to make 'reactive astrocyte cocktail' (RAC) media. […] Bachem, Cat. #4029110), BAY-11-7082 (50 μM; Abcam, Cat. #ab141228) or equal volume of vehicle (0.01% DMSO in PBS) (hereafter referred to as 'RAC treatment'). Cells in Groups 3-6 were treated with RAC for 24 hours, with or without the test compounds (n=4 per group). • Group 1: Control [CON] • Group 2: CON+BGE-105 (50 nM) [CON+105] • Group 3: Reactive control treated with RAC only [RAC] • Group 4: RAC+BGE-105 (50 nM) [RAC+105] • Group 5: RAC+Pyrm-Apelin-13 (50 nM) • Group 6: RAC+BAY-11-7082 (NF-κB inhibitor; 50 μM) [RAC+BAY] Media from each tested cell group was collected for cytokine release analysis. Cells were lysed for RNA collection and RT-PCR was performed to synthesis cDNA under standard conditions. Next, transcriptome analysis was performed to determine the expression level of astrocyte genes or astrocyte responsive genes. Changes of expression was normalized to β-actin (FIGS. 8 and 9). Exemplary biomarkers include CCL2, CXCL10, CXCL11, CXCL1, CXCL2, CXCL3, CXCL8, EDN1, […]3, CIS, CTRL, C3, CFB, VEGF, and IL-6.

[1] = system: NF-κB activation and IκBα phosphorylation in astrocytes; experiment: Western blot of NF-κB p65 and p-IκBα/t-IκBα in astrocytes; type: cell-based, mouse
Method: To stimulate astrocytes into a reactive state found in aging and neurodegenerative diseases per previous publications (Liddelow et al., 2017; Barbar et al., 2020), a combination of the cytokines TNF-α and IL-1α, and complement factor C1q, were added at 30 ng/mL, 3 ng/mL, and 400 ng/mL, respectively, into astrocyte culture media to make ‘reactive astrocyte cocktail’ (RAC) media. Astrocytes were cultured in RAC media for 24 hours, with or without various concentrations of BGE-105 (10 nM, 50 nM, 250 nM final concentration), (Pyr^1)-Apelin-13 (50 nM; Bachem, Cat. #4029110), BAY-11-7082 (50 μM; Abcam, Cat. #ab141228) or equal volume of vehicle (0.01% DMSO in PBS) (hereafter referred to as ‘RAC treatment’). […]
For analysis of astrocyte protein expression, cells were washed after RAC treatment with PBS and lysed with Neuronal Protein Extraction Reagent (Thermo Scientific, Cat. #87792), centrifuged to pellet debris, and supernatant was transferred to a new tube. Total protein concentration was measured by BCA protein assay (Thermo Scientific, Cat. #PI23227).

COc1cccc(OC)c1-n1c(NS(=O)(=O)[C@@H](C)[C@H](C)c2ncc(C)cn2)nnc1-c1cncc(C)c1 [BGE-105, (2S,3R)—N-(4-(2,6-dimethoxyphenyl)-5-(5-methyl-3-pyridinyl)-4H-1,2,4-triazol-3-yl)-3-(5-methyl-2-pyrimidinyl)-2-butanesulfonamide]
expression of biomarkers CXCL1, C3 and IL-6 in control astrocytes (Mouse astrocyte cells; CON+105, BGE-105 50 nM, no RAC): no or minimal impact
reduction of IL-6 gene expression in RAC-induced reactive astrocytes (Mouse astrocyte cells; RAC+105 (50 nM) versus RAC, 24 hours, p<0.0001): 5-10 fold
reduction of C3 gene expression in RAC-induced reactive astrocytes (Mouse astrocyte cells; RAC+105 (50 nM) versus RAC, 24 hours, p=0.0015): 10-20 fold
CXCL1 gene expression in RAC-induced reactive astrocytes (Mouse astrocyte cells; RAC+105 (50 nM) versus RAC, 24 hours, p=0.0204): significantly reduced
ratio of p-IκBα/tIκBα expression normalized to β-actin ([1]; RAC+BGE105 (50 nM) versus RAC): significantly reduced
NF-κB p65 expression normalized to β-actin ([1]; RAC+BGE-105 (50 nM) versus RAC): significantly reduced
